The structures appear in SMILES notation.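 Growth conditions: 96-well plates. Treatment: test compound, 48 hours, 5 concentrations. Analysis: linear interpolation between bracketing concentrations; unreached endpoints set to highest concentration. TGI: concentration producing complete growth inhibition.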

In one assay the test system is SR leukemia. In words: DTP human tumour cell line panel, 48 h.
`CCOC(=O)c1nc2c(nc1C(=O)OCC)C(=O)c1ccccc1C2=O`: the TGI (in general, the concentration at which net growth stops) is 0.68 µM.
Still for that read-out and setting: as for `Cc1ccc(C(=C2Sc3ccccc3S2)C(=C2Sc3ccccc3S2)c2ccc(C)s2)s1`, the figure is 85.7 µM.
Turning to `CCCCC(C(=O)NCCNC(=O)CCC(=O)N(C)O)C(=O)NCCNC(=O)CCC(=O)N(C)O`, the total growth inhibition concentration (TGI) is more than 100 µM.
Still for that read-out and setting: to `C=CCSc1nnc2cc(CN3CCCC3)c(-c3ccc(Cl)cc3)nn12` belongs more than 100 µM; to `Cc1cn(C2CC(O)C(CO)O2)c(=O)[nH]c1=O` (stereo unspecified), more than 5000 µM; to `COc1cccc2c1OC1(C=C2)Oc2ccccc2C(=O)N1C` (stereo unspecified), 54.2 µM.
In turn, `O=[N+]([O-])c1ccc(Oc2c(Cl)cc(S(=O)(=O)/N=C(\NO)Nc3ccc(Cl)cc3)cc2Cl)cc1` yielded a concentration for total growth inhibition (TGI) of 17.2 µM.
`O=C(CC(C(=O)c1ccsc1)c1ccc2c(c1)OCO2)c1ccccc1` (stereo unspecified) returned a concentration for total growth inhibition (TGI) of more than 100 µM.
On the same count and under the same terms, to `COc1ccc(NC(=O)CC(=O)N2N=C(N3c4ccccc4Sc4ccccc43)CC2c2ccccc2)cc1` (stereo unspecified) belongs more than 100 µM; to `CCOC(=O)c1ccc(NCC#CCN2CCOCC2)cc1`, more than 100 µM.
For the compound `CC1(C)C2CCC1(C)[C@H](n1c(=O)n([C@@H]3CC4CCC3(C)C4(C)C)c(=O)n([C@@H]3CC4CCC3(C)C4(C)C)c1=O)C2`, the total growth inhibition concentration (TGI) is more than 100 µM.
`Cc1cc(C(=O)CCCCOc2ccc(C3=NCCO3)cc2)c(C)n1C` gave a total growth inhibition concentration (TGI) of 54.9 µM.

The next assay relates to SW-620 colon. In words: DTP human tumour cell line panel, 48 h.
For the compound `CC1(C)CCCC2OC2CCC(C)(C)C1=O` (stereo unspecified), the TGI is more than 100 µM.
In turn, `O=C1NCC2(CCN(CCCC3(c4ccc(F)cc4)OCCO3)CC2)N1c1ccccc1` gave a TGI of more than 100 µM.
`O=C(Nc1nccs1)c1c(O)nc2sccn2c1=O` gave a total growth inhibition concentration (TGI) of more than 10 µM.
In turn, `CC1=NN(c2cccc(Cl)c2)C2(SCC(=O)N2c2nc3ccccc3s2)/C1=C\c1ccccc1O` (stereo unspecified) displayed a TGI of 35.8 µM.
The compound `Cc1c(S(=O)(=O)c2ccccc2)c(N)n(CCN(C)C)c1C` displayed a TGI of more than 100 µM.
Compound `N=C(N)SCc1ccc2c(c1)Sc1ccccc1O2` had a concentration for total growth inhibition (TGI) of 34 µM.
In turn, `CCC1(CC)C(=O)NN(C(=O)c2ccccc2)C1=O` had a total growth inhibition concentration (TGI) of more than 100 µM.
Still for that read-out and setting: to `CS(=O)c1ncc2c(n1)-c1ccccc1OC2` (stereo unspecified) belongs more than 100 µM.
As to `CN(C)c1ccc(C(=N/N=C2\C(=O)Nc3ccccc32)c2ccc(N(C)C)cc2)cc1`, the total growth inhibition concentration (TGI) was more than 100 µM.
`CCCC(=O)OC1CC(n2cc(F)c(=O)[nH]c2=O)OC1COP(=O)(OCC(Cl)(Cl)Cl)OCC(Cl)(Cl)Cl` (stereo unspecified): the total growth inhibition concentration (TGI) was more than 100 µM.
`CSC(=S)N(C)C` displayed a total growth inhibition concentration (TGI) of more than 100 µM.
As to `CCN(CC)CCn1c(=O)c2cccnc2n2c3c(=O)n(C)c(=O)n(C)c3nc12`, the TGI is more than 100 µM.
As to `CCOC(=O)C1=C(C)C2C=C(c3cccs3)CC(c3ccc(Cl)cc3)=C2OC1=O` (stereo unspecified), the TGI was more than 100 µM.
In turn, `CN(C)c1ccc(S(=O)Nc2ccccc2)cc1` (stereo unspecified) showed a TGI of more than 100 µM.
In turn, `COc1ccc2c(c1)OCC1Cc3ccccc3OC21` (stereo unspecified) gave a TGI of more than 100 µM.
`CCOC(=O)c1nc2c(nc1C(=O)OCC)C(=O)c1ccccc1C2=O` returned a total growth inhibition concentration (TGI) of 3.77 µM.
In turn, `Cc1ccc(C(=C2Sc3ccccc3S2)C(=C2Sc3ccccc3S2)c2ccc(C)s2)s1` had a concentration for total growth inhibition (TGI) of more than 100 µM.
On the same count and under the same terms, to `CCCCC(C(=O)NCCNC(=O)CCC(=O)N(C)O)C(=O)NCCNC(=O)CCC(=O)N(C)O` belongs more than 100 µM.
For `C=CCSc1nnc2cc(CN3CCCC3)c(-c3ccc(Cl)cc3)nn12`, the TGI worked out at 93 µM.
Take `Cc1cn(C2CC(O)C(CO)O2)c(=O)[nH]c1=O` (stereo unspecified): the concentration for total growth inhibition (TGI) was more than 5000 µM.
Turning to `COc1cccc2c1OC1(C=C2)Oc2ccccc2C(=O)N1C` (stereo unspecified), the TGI is more than 100 µM.
Consider `O=[N+]([O-])c1ccc(Oc2c(Cl)cc(S(=O)(=O)/N=C(\NO)Nc3ccc(Cl)cc3)cc2Cl)cc1`, for which the total growth inhibition concentration (TGI) amounted to 28.6 µM.
In the case of `O=C(CC(C(=O)c1ccsc1)c1ccc2c(c1)OCO2)c1ccccc1` (stereo unspecified), the TGI is more than 100 µM.
On to `COc1ccc(NC(=O)CC(=O)N2N=C(N3c4ccccc4Sc4ccccc43)CC2c2ccccc2)cc1` (stereo unspecified), for which the total growth inhibition concentration (TGI) was more than 100 µM.
For `CCOC(=O)c1ccc(NCC#CCN2CCOCC2)cc1`, the TGI was more than 100 µM.
For `CC1(C)C2CCC1(C)[C@H](n1c(=O)n([C@@H]3CC4CCC3(C)C4(C)C)c(=O)n([C@@H]3CC4CCC3(C)C4(C)C)c1=O)C2`, the TGI was more than 100 µM.
Regarding `Cc1cc(C(=O)CCCCOc2ccc(C3=NCCO3)cc2)c(C)n1C`, the TGI is more than 100 µM.

The next assay has as its system T-47D breast. In words: DTP human tumour cell line panel, 48 h.
`CC1(C)CCCC2OC2CCC(C)(C)C1=O` (stereo unspecified) came in with a TGI of more than 100 µM.
In the case of `O=C1NCC2(CCN(CCCC3(c4ccc(F)cc4)OCCO3)CC2)N1c1ccccc1`, the TGI is more than 100 µM.
`O=C(Nc1nccs1)c1c(O)nc2sccn2c1=O` had a total growth inhibition concentration (TGI) of more than 10 µM.
Take `CC1=NN(c2cccc(Cl)c2)C2(SCC(=O)N2c2nc3ccccc3s2)/C1=C\c1ccccc1O` (stereo unspecified): the TGI was 37.9 µM.
For the compound `Cc1c(S(=O)(=O)c2ccccc2)c(N)n(CCN(C)C)c1C`, the TGI is more than 100 µM.
In the case of `N=C(N)SCc1ccc2c(c1)Sc1ccccc1O2`, the concentration for total growth inhibition (TGI) worked out at 43 µM.
As for `CCC1(CC)C(=O)NN(C(=O)c2ccccc2)C1=O`, the concentration for total growth inhibition (TGI) was more than 100 µM.
Take `CS(=O)c1ncc2c(n1)-c1ccccc1OC2` (stereo unspecified): the total growth inhibition concentration (TGI) is more than 100 µM.
As to `CN(C)c1ccc(C(=N/N=C2\C(=O)Nc3ccccc32)c2ccc(N(C)C)cc2)cc1`, the concentration for total growth inhibition (TGI) was determined as 35.5 µM.
On to `CCCC(=O)OC1CC(n2cc(F)c(=O)[nH]c2=O)OC1COP(=O)(OCC(Cl)(Cl)Cl)OCC(Cl)(Cl)Cl` (stereo unspecified), for which the total growth inhibition concentration (TGI) is more than 31.6 µM.
On the same count and under the same terms, to `CSC(=S)N(C)C` belongs more than 100 µM; to `CCN(CC)CCn1c(=O)c2cccnc2n2c3c(=O)n(C)c(=O)n(C)c3nc12`, more than 100 µM; to `CCOC(=O)C1=C(C)C2C=C(c3cccs3)CC(c3ccc(Cl)cc3)=C2OC1=O` (stereo unspecified), 66.5 µM.
`CN(C)c1ccc(S(=O)Nc2ccccc2)cc1` (stereo unspecified) gave a TGI of 65.6 µM.
Same read-out and setting: to `COc1ccc2c(c1)OCC1Cc3ccccc3OC21` (stereo unspecified) belongs more than 100 µM; to `CCOC(=O)c1nc2c(nc1C(=O)OCC)C(=O)c1ccccc1C2=O`, more than 62.8 µM; to `Cc1ccc(C(=C2Sc3ccccc3S2)C(=C2Sc3ccccc3S2)c2ccc(C)s2)s1`, more than 100 µM.
Regarding `CCCCC(C(=O)NCCNC(=O)CCC(=O)N(C)O)C(=O)NCCNC(=O)CCC(=O)N(C)O`, the TGI was more than 100 µM.
On to `C=CCSc1nnc2cc(CN3CCCC3)c(-c3ccc(Cl)cc3)nn12`, for which the TGI was 71.4 µM.
Take `Cc1cn(C2CC(O)C(CO)O2)c(=O)[nH]c1=O` (stereo unspecified): the TGI was more than 5000 µM.
In the case of `COc1cccc2c1OC1(C=C2)Oc2ccccc2C(=O)N1C` (stereo unspecified), the TGI worked out at 99 µM.
With `O=[N+]([O-])c1ccc(Oc2c(Cl)cc(S(=O)(=O)/N=C(\NO)Nc3ccc(Cl)cc3)cc2Cl)cc1`, the concentration for total growth inhibition (TGI) turned out to be 34.3 µM.
For `O=C(CC(C(=O)c1ccsc1)c1ccc2c(c1)OCO2)c1ccccc1` (stereo unspecified), the TGI is more than 100 µM.
With `COc1ccc(NC(=O)CC(=O)N2N=C(N3c4ccccc4Sc4ccccc43)CC2c2ccccc2)cc1` (stereo unspecified), the TGI was more than 100 µM.
In the case of `CCOC(=O)c1ccc(NCC#CCN2CCOCC2)cc1`, the concentration for total growth inhibition (TGI) is more than 100 µM.
For `CC1(C)C2CCC1(C)[C@H](n1c(=O)n([C@@H]3CC4CCC3(C)C4(C)C)c(=O)n([C@@H]3CC4CCC3(C)C4(C)C)c1=O)C2`, the TGI is more than 100 µM.
For `Cc1cc(C(=O)CCCCOc2ccc(C3=NCCO3)cc2)c(C)n1C`, the total growth inhibition concentration (TGI) was 65.6 µM.

Source of the values: PubChem BioAssay (NCI).
